One assay concerns crayfish astacin. Details: method as in PMID 8756323. The note with it: cited from earlier work.
The target of assay [1] is T1, recombinant DPY-31 from T. circumcincta (Teladorsagia circumcincta, UniProt A0A0C5PRQ1).
T1 construct: made in house; host or cells: E. coli (inferred from the codon optimisation and the pET28a(+) vector)
The experiment in a line: rDPY-31 absorbance assay (astacin assay, Suc-Ala-Ala-Ala-pNA substrate). Type of assay: biochemical. The note with it: T. circumcincta enzyme; species not given; read-out: IC50 rDPY-31 (in vitro absorbance assay). From the text: (§1) In total, 104 compounds were screened against recombinant DPY-31 from both the human parasite B. malayi as well as the sheep GI parasite T. circumcincta using an absorbance assay.[(i)], [10] […] This may be due to the extremely slow binding kinetics of these inhibitors.[17]
(§2) The 684bp and 675bp sequences encoding the astacin domains of T. circumcincta DPY-31, and B. malayi DPY-31, were codon-optimised for E. coli by GeneArt (Life Technologies), and cloned into vector pMA-T. These plasmids were then inserted into the pET28a(+) vector, expression of the encoded proteins was induced and the resulting proteins were purified following the methods described previously. Zinc metalloprotease assays were performed to determine the activity of the recombinant DPY-31 proteins from these nematode species, using the previously described method.^18
(§3) An astacin assay was performed to determine the inhibitory activity of all compounds against recombinant DPY-31 from the two nematode species. Briefly, 150 µg/ml of recombinant enzyme was incubated with 0.1 mM ZnCl2 and various concentrations (5 µM to 400 µM) of compound, and the volume was made up to a total of 100 µl with 50 mM NaPO4, pH 8.0 buffer. […] Absorbance was measured on a plate reader at 405 nm. […]

The target in assay [2] is T2, recombinant DPY-31 from B. malayi (Brugia malayi, UniProt A8Q2D1).
T2 construct: made in house; host or cells: E. coli (inferred from the codon optimisation and the pET28a(+) vector)
The assay is described as above. Conditions: ±standard error; 3 h pre-incubation, 37 °C, pH 8.0; read-out: pIC50 rDPY-31 B. malayi (converted). Type of assay: biochemical.
From the text: as §1, §2, §3

Assay [3] deals with T. circumcincta dpy-31 transgenically-rescued C. elegans dpy-31 mutant TP224. Kind of assay: Phenotypic screening against transgenic rescue strain TP224. The assay is classed as in vivo, Caenorhabditis elegans. The note with it: for phenotype induced: TP224, 96 well plate, 3 days, 50 μM to 2 mM. As for the experimental part: (§4) These compounds were tested against three strains: free-living wild-type C. elegans N2, the T. circumcincta dpy-31 transgenically-rescued C. elegans dpy-31 mutant TP224, and parasitic T. circumcincta (Fig. 4). Phenotypes were evaluated in 96 well plate format over the course of 3 days using concentrations ranging from 50 μM to 2 mM. […] The similarity of these effects between wild-type C. elegans, the mutant strain, and T. circumcincta reinforces the conserved nature of this metalloprotease.
Compounds 8 and 9 were screened against C. elegans N2 or TP224 L4s at 100, 250 and 1000 µM, using 96-well plates. A single L4 was placed into each of the wells in a total volume of 100 µl, made up of compound, M9 buffer and 5 µl 10x concentrated OP50. The compound concentrations were tested in duplicate for each compound. The plates were sealed with gas-permeable covers and incubated at 20 °C for 3 days, with the effects on the phenotypes recorded daily. Representative worm images were taken as described in section 5.1.

For assay [4], the system named is free-living wild-type C. elegans N2. The experiment in a line: Phenotypic screening against C. elegans N2 larvae. Type of assay: in vivo, Caenorhabditis elegans. The note with it: for phenotype induced: C. elegans N2, 96 well plate, 3 days, 50 μM to 2 mM. As for the experimental part:
as §4
Compounds 8 and 9 were screened against C. elegans N2 L4s using 96-well plates. A single L4 was placed into each well in a total volume of 100 µL, made up of compound, M9 buffer and 5 µl 10x concentrated food (E. coli strain OP50), and incubated at 20 °C for 3 days, with the effects on the phenotypes recorded daily. The compounds were screened in duplicate at concentrations ranging from 50 µM to 2 mM. Actinonin (100 µM) was used as a positive control.^18 Representative offspring were transferred onto 2% agarose/0.01% azide pads on slides and viewed with a Zeiss Axioskop2 microscope. Images were taken using an AxioCam camera and Axiovision software.

Assay [5] deals with parasitic T. circumcincta. Kind of assay: Phenotypic screening against T. circumcincta L1s and L3s. The note with it: for phenotype induced: T. circumcincta, 96 well plate, 50 μM to 2 mM. The assay is classed as in vivo, Teladorsagia circumcincta. How it is done: as §4
T. circumcincta L1s or exsheathed L3s were incubated with compounds 8 and 9 at 100, 500 and 1000 µM. 10-20 L1s were incubated per well of a 96-well plate, each well containing compound, 5 µl 10x concentrated OP50 and EBSS (Earle’s Balanced Salt Solution; Life Technologies) to 100 µl, and 10-20 L3s were incubated per well of a 96-well plate, each well containing compound and EBSS to 100 µl. Each compound was tested in duplicate for all concentrations. The plates were sealed with gas-permeable covers and incubated at 26 °C (L1s) or 40 °C (L3s) at 100 rpm for 7-8 days and any observations on development were recorded. Representative worm images were taken as described in section 5.1.

Each structure is given as a SMILES string. Where a SMILES comes first, the peptide text is derived from it. Where only a bound is given, the exact number is not on record here.

T2 sequence (A8Q2D1 211-410): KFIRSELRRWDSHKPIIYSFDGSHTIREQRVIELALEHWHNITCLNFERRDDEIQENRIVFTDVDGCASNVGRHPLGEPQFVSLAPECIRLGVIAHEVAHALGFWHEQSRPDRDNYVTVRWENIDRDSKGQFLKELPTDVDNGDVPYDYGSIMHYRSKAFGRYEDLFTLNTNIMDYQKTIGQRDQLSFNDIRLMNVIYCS
T1 sequence (A0A0C5PRQ1 151-614): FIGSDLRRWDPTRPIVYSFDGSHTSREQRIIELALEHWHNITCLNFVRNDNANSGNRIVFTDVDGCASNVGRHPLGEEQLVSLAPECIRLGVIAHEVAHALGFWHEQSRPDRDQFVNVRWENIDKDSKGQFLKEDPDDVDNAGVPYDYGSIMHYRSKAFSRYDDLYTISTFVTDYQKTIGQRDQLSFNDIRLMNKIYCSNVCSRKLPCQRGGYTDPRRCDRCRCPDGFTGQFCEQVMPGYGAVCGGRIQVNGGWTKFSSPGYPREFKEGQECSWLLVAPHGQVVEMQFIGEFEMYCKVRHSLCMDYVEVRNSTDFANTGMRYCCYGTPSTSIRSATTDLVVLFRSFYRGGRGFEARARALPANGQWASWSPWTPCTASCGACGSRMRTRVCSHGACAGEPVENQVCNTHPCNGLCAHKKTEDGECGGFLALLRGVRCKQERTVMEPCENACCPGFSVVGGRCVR

In the case of `COC(=O)C1CCCN1C(=O)C(C)CP(=O)(O)C(Cc1ccccc1)NC(=O)C(CCCCN)NC(=O)C1CCCN1C(=O)OCc1ccccc1` (stereo not drawn) [Compound 1], in the assay on crayfish astacin, the “inhibition of crayfish astacin” value is recorded as “mid-μM inhibitor”. In assay [1], the IC50 was > 500 µM.
`CNC(=O)[C@@H](NC(=O)[C@H](CC(C)C)[C@H](O)C(=O)NO)C(C)(C)C` [Compound 3, marimastat]: the IC50 in assay [2] is 200 µM.
In the case of `C[C@H](NC(=O)[C@@H]1CCCN1C(=O)OC(C)(C)C)C(=O)N[C@@H](Cc1ccccc1)C(=O)NO` [Compound 8] (HELM PEPTIDE1{[CC(C)(C)OC(=O)[*:2]].P.A.F.[ON[*:1]]}$$$$V2.0), in assay [3] (L1 TP224, 100 μM), the “phenotype observed (Figure 4d)” value is reported as “Dpy L1 phenotype”. Further, the phenotype induced entry in assay [3], in assay [4] and in assay [5] was “induce the Dpy phenotype” each time. For the same molecule, in assay [4] (L1 C. elegans (N2), 50 μM), the “phenotype observed (Figure 4b)” value was “Dpy phenotype”.
Regarding `C[C@H](NC(=O)[C@@H]1CCCN1C(=O)OCC1c2ccccc2-c2ccccc21)C(=O)N[C@@H](Cc1ccccc1)C(=O)NO` [Compound 9] (HELM PEPTIDE1{[O=C(OCC1c2ccccc2-c2ccccc21)[*:2]].P.A.F.[ON[*:1]]}$$$$V2.0), the phenotype induced result in assay [3], in assay [4] and in assay [5] was “induce the Dpy phenotype” throughout. The “phenotype observed (Figure 4f)” value in assay [5] (T. circumcincta L3, 500 μM) is “Dpy phenotype”.
